Assay results as given in patent US8334316B2, “Substituted organosulfur compounds and methods of using thereof” (ACEA Biosciences, Inc., priority 2004, dated 2012).
Like-named read-outs stand apart in the source and are kept apart here.

Assay: Acute toxicity, single intravenous injection, LD50 (Bliss method) in Kunming mice
Type: in vivo
Settings: for Dead animals on day 8 after the single intravenous injection / Dead animals on day 9 after the single intravenous injection / Dead animals on days 10-14 after the single intravenous injection / Percentage of dead animals / Dead animals on day 1 after the single intravenous injection / Dead animals on day 2 after the single intravenous injection / Dead animals on day 3 after the single intravenous injection / Dead animals on day 4 after the single intravenous injection / Dead animals on day 5 after the single intravenous injection / Dead animals on day 6 after the single intravenous injection / Dead animals on day 7 after the single intravenous injection: 10 animals; for LD50 at 2 weeks: Kunming, mouse, in vivo, iv
Protocol: To evaluate the in vivo acute, intravenous toxicity of DBTS and ACEA100108 (a derivative of DBTS, see Table 33), the experiments were performed in non-tumor bearing, normal Kunming mice by monitoring the acute response of mice to a single dose of DBTS or ACEA100108 via intravenous injection (i.v.). The number of death for the treated mice was monitored and recorded. LD50 values for these compounds were calculated. Details of the study are provided below.
The experiments to test DBTS and ACEA100108 acute toxicity were performed in mice. The test mice were randomly divided into six groups (five dosing groups and one control group). Each group contained 20 Kunming strain mice, and among them, 50% were male and 50% were female. After administration of a single dose of DBTS or ACEA100108 via intravenous injection (i.v.), the acute response to DBTS or ACEA100108 compound, and the death of the treated mice during the first two weeks were monitored and recorded. The LD50 value was calculated using the Bliss method.
Materials and Method. The test chemical compound were DBTS and ACEA100108, which were dissolved into hydrogenated castor oil in the pre-warmed water bath and made as a 20 mg/ml solution. The solution was further diluted to desired experiment concentrations with the normal saline. The administration volume was 0.5 ml i.v. per mouse and the injection speed was 0.5 ml/0.5 min.
The experimental mice were Kunming strain, provided by the Experimental Animal Department, Shanghai Pharmaceutical Industry Institute. The certificate number of the facility was Animal Facility Certification Number 107. The average weight of the mice was 18-20 gram. Each test group contained 20 Kunming strain mice, and among them, 10 mice were male and 10 mice were female. […] The mice in the control group were only given the same volume of the solvent, which were diluted hydrogenated castor oil. All the testing mice were given a single intravenous injection of DBTS, ACEA100108, or the solvent that served as the control at the injection speed of 0.5 ml/0.5 min. The acute response to DBTS, ACEA100108 or the solvent immediately after the administration, as well as weight change, and the death within the first two weeks of the administration were monitored and recorded. The intravenous injection LD50 values in mice were calculated using the Bliss method.

SMILES: Fc1ccc(CSSSCc2ccc(F)cc2)cc1 [ACEA100108, Di(p-fluorobenzyl)trisulfide]
- Dead animals on day 8 after the single intravenous injection (Female, 320 mg/kg): 0
- Dead animals on day 9 after the single intravenous injection (Female, 320 mg/kg): 0
- Dead animals on days 10-14 after the single intravenous injection (Female, 320 mg/kg): 0 - - - 0
- Percentage of dead animals (Female, 320 mg/kg): 50%
- Average animal weight, End (Female, 320 mg/kg, Beginning 19.9): 24.6
- Dead animals on day 1 after the single intravenous injection (Female, 400 mg/kg): 5
- Dead animals on day 2 after the single intravenous injection (Female, 400 mg/kg): 2
- Dead animals on day 3 after the single intravenous injection (Female, 400 mg/kg): 0
- Dead animals on day 4 after the single intravenous injection (Female, 400 mg/kg): 1
- Dead animals on day 5 after the single intravenous injection (Female, 400 mg/kg): 0
- Dead animals on day 6 after the single intravenous injection (Female, 400 mg/kg): 0
- Dead animals on day 7 after the single intravenous injection (Female, 400 mg/kg): 0
- Dead animals on day 8 after the single intravenous injection (Female, 400 mg/kg): 0
- Dead animals on day 9 after the single intravenous injection (Female, 400 mg/kg): 0
- Dead animals on days 10-14 after the single intravenous injection (Female, 400 mg/kg): 0 - - - 0
- Percentage of dead animals (Female, 400 mg/kg): 80%
- Average animal weight, End (Female, 400 mg/kg, Beginning 19.9): 23.5
- Dead animals on day 1 after the single intravenous injection (Female, 500 mg/kg): 10
- Dead animals on day 2 after the single intravenous injection (Female, 500 mg/kg): 0
- Dead animals on day 3 after the single intravenous injection (Female, 500 mg/kg): 0
- Dead animals on day 4 after the single intravenous injection (Female, 500 mg/kg): 0
- Dead animals on day 5 after the single intravenous injection (Female, 500 mg/kg): 0
- Dead animals on day 6 after the single intravenous injection (Female, 500 mg/kg): 0
- Dead animals on day 7 after the single intravenous injection (Female, 500 mg/kg): 0
- Dead animals on day 8 after the single intravenous injection (Female, 500 mg/kg): 0
- Dead animals on day 9 after the single intravenous injection (Female, 500 mg/kg): 0
- Dead animals on days 10-14 after the single intravenous injection (Female, 500 mg/kg): 0 - - - 0
- Percentage of dead animals (Female, 500 mg/kg): 100%
- Dead animals on day 1 after the single intravenous injection (Male, 163.8 mg/kg): 0
- Dead animals on day 2 after the single intravenous injection (Male, 163.8 mg/kg): 0
- Dead animals on day 3 after the single intravenous injection (Male, 163.8 mg/kg): 0
- Dead animals on day 4 after the single intravenous injection (Male, 163.8 mg/kg): 0
- Dead animals on day 5 after the single intravenous injection (Male, 163.8 mg/kg): 0
- Dead animals on day 6 after the single intravenous injection (Male, 163.8 mg/kg): 0
- Dead animals on day 7 after the single intravenous injection (Male, 163.8 mg/kg): 0
- Dead animals on day 8 after the single intravenous injection (Male, 163.8 mg/kg): 0
- Dead animals on day 9 after the single intravenous injection (Male, 163.8 mg/kg): 0
- Dead animals on days 10-14 after the single intravenous injection (Male, 163.8 mg/kg): 0 - - - 0
- Percentage of dead animals (Male, 163.8 mg/kg): 0%
- Average animal weight, End (Male, 163.8 mg/kg, Beginning 20.4): 27.0
- Dead animals on day 1 after the single intravenous injection (Male, 204.8 mg/kg): 0
- Dead animals on day 2 after the single intravenous injection (Male, 204.8 mg/kg): 0
- Dead animals on day 3 after the single intravenous injection (Male, 204.8 mg/kg): 1
- Dead animals on day 4 after the single intravenous injection (Male, 204.8 mg/kg): 0
- Dead animals on day 5 after the single intravenous injection (Male, 204.8 mg/kg): 0
- Dead animals on day 6 after the single intravenous injection (Male, 204.8 mg/kg): 0
- Dead animals on day 7 after the single intravenous injection (Male, 204.8 mg/kg): 0
- Dead animals on day 8 after the single intravenous injection (Male, 204.8 mg/kg): 0
- Dead animals on day 9 after the single intravenous injection (Male, 204.8 mg/kg): 0
- Dead animals on days 10-14 after the single intravenous injection (Male, 204.8 mg/kg): 0 - - - 0
- Percentage of dead animals (Male, 204.8 mg/kg): 10%
- Average animal weight, End (Male, 204.8 mg/kg, Beginning 20.3): 26.3
- Dead animals on day 1 after the single intravenous injection (Male, 256 mg/kg): 0
- Dead animals on day 2 after the single intravenous injection (Male, 256 mg/kg): 2
- Dead animals on day 3 after the single intravenous injection (Male, 256 mg/kg): 0
- Dead animals on day 4 after the single intravenous injection (Male, 256 mg/kg): 1
- Dead animals on day 5 after the single intravenous injection (Male, 256 mg/kg): 0
- Dead animals on day 6 after the single intravenous injection (Male, 256 mg/kg): 0
- Dead animals on day 7 after the single intravenous injection (Male, 256 mg/kg): 0
- Dead animals on day 8 after the single intravenous injection (Male, 256 mg/kg): 0
- Dead animals on day 9 after the single intravenous injection (Male, 256 mg/kg): 0
- Dead animals on days 10-14 after the single intravenous injection (Male, 256 mg/kg): 0 - - - 0
- Percentage of dead animals (Male, 256 mg/kg): 30%
- Average animal weight, End (Male, 256 mg/kg, Beginning 20.2): 26.3
- Dead animals on day 1 after the single intravenous injection (Male, 320 mg/kg): 0
- Dead animals on day 2 after the single intravenous injection (Male, 320 mg/kg): 3
- Dead animals on day 3 after the single intravenous injection (Male, 320 mg/kg): 1
- Dead animals on day 4 after the single intravenous injection (Male, 320 mg/kg): 0
- Dead animals on day 5 after the single intravenous injection (Male, 320 mg/kg): 0
- Dead animals on day 6 after the single intravenous injection (Male, 320 mg/kg): 0
- Dead animals on day 7 after the single intravenous injection (Male, 320 mg/kg): 0
- Dead animals on day 8 after the single intravenous injection (Male, 320 mg/kg): 0
- Dead animals on day 9 after the single intravenous injection (Male, 320 mg/kg): 0
- Dead animals on days 10-14 after the single intravenous injection (Male, 320 mg/kg): 0 - - - 0
- Percentage of dead animals (Male, 320 mg/kg): 40%
- Average animal weight, End (Male, 320 mg/kg, Beginning 20.0): 26.7
- Dead animals on day 1 after the single intravenous injection (Male, 400 mg/kg): 3
- Dead animals on day 2 after the single intravenous injection (Male, 400 mg/kg): 3
- Dead animals on day 3 after the single intravenous injection (Male, 400 mg/kg): 0
- Dead animals on day 4 after the single intravenous injection (Male, 400 mg/kg): 1
- Dead animals on day 5 after the single intravenous injection (Male, 400 mg/kg): 0
- Dead animals on day 6 after the single intravenous injection (Male, 400 mg/kg): 0
- Dead animals on day 7 after the single intravenous injection (Male, 400 mg/kg): 0
- Dead animals on day 8 after the single intravenous injection (Male, 400 mg/kg): 0
- Dead animals on day 9 after the single intravenous injection (Male, 400 mg/kg): 0
- Dead animals on days 10-14 after the single intravenous injection (Male, 400 mg/kg): 0 - - - 0
- Percentage of dead animals (Male, 400 mg/kg): 70%
- Average animal weight, End (Male, 400 mg/kg, Beginning 19.9): 26.0
- Dead animals on day 1 after the single intravenous injection (Male, 500 mg/kg): 10
- Dead animals on day 2 after the single intravenous injection (Male, 500 mg/kg): 0
- Dead animals on day 3 after the single intravenous injection (Male, 500 mg/kg): 0
- Dead animals on day 4 after the single intravenous injection (Male, 500 mg/kg): 0
- Dead animals on day 5 after the single intravenous injection (Male, 500 mg/kg): 0
- Dead animals on day 6 after the single intravenous injection (Male, 500 mg/kg): 0
- Dead animals on day 7 after the single intravenous injection (Male, 500 mg/kg): 0
- Dead animals on day 8 after the single intravenous injection (Male, 500 mg/kg): 0
- Dead animals on day 9 after the single intravenous injection (Male, 500 mg/kg): 0
- Dead animals on days 10-14 after the single intravenous injection (Male, 500 mg/kg): 0 - - - 0
- Percentage of dead animals (Male, 500 mg/kg): 100%
- LD50 at 2 weeks (both sexes, 50% male, 50% female Kunming mice, single intravenous injection, confidence limits, read-out: LD50 (95% CL)): 284 to 351 mg/kg
- LD50 at 2 weeks (both sexes, 50% male, 50% female Kunming mice, single intravenous injection, read-out: LD50): 316 mg/kg
- LD50 at 2 weeks (both sexes, Kunming mice, 50% male 50% female, Bliss method, read-out: mouse single i.v. dose LD50, interval in parentheses): 284 to 351 mg/kg
- LD50 at 2 weeks (both sexes, Kunming mice, 50% male 50% female, Bliss method, read-out: mouse single i.v. dose LD50 value): 316 mg/kg
- LD50 at 2 weeks (female, Female Kunming mice, single intravenous injection, confidence limits, read-out: LD50 (95% CL)): 273 to 360 mg/kg
- LD50 at 2 weeks (female, Female Kunming mice, single intravenous injection, read-out: LD50): 313 mg/kg
- LD50 at 2 weeks (male, Male Kunming mice, single intravenous injection, confidence limits, read-out: LD50 (95% CL)): 272 to 375 mg/kg
- LD50 at 2 weeks (male, Male Kunming mice, single intravenous injection, read-out: LD50): 319 mg/kg
